Measured values reported in ChEMBL document CHEMBL6087454, “Identification of Novel Organo-Se BTSA-Based Derivatives as Potent, Reversible, and Selective PPARγ Covalent Modulators for Antidiabetic Drug Discovery” (J Med Chem, 2025).
Active and inactive are the calls of the source. The calls are words filed in the database; no cut-off is given here.

Columns and labels:
[1] = target: T1, Peroxisome proliferator-activated receptor gamma (Homo sapiens, UniProt P37231); experiment: Binding affinity to recombinant GST-tagged human PPAR-gamma ligand binding domain (E235 to Y505 residues) extracted from Escherichia coli BL21 (DE3) cells assessed as inhibition constant in presence of fluormone pan-PPAR green tracer by TR-FRET assay
T1 sequence (P37231 whole entry): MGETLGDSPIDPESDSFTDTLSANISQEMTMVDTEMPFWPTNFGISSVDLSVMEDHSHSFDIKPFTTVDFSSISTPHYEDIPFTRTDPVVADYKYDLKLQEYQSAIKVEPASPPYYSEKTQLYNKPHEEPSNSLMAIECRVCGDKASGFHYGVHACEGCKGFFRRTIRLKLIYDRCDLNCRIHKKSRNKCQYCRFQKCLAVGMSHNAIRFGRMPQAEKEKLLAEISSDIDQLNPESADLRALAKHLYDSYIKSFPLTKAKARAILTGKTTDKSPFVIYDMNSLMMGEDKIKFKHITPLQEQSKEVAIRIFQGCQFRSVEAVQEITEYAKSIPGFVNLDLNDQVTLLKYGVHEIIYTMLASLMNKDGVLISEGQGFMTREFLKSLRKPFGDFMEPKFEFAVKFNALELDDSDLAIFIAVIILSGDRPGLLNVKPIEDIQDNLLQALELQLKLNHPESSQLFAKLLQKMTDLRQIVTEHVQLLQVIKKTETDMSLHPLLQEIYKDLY

[2] = target: T1, Peroxisome proliferator-activated receptor gamma; experiment: Displacement of fluormone pan-PPAR green from recombinant GST-tagged human PPAR-gamma ligand binding domain (E235 to Y505 residues) extracted from Escherichia coli BL21 (DE3) cells by TR-FRET assay
[3] = Toxicity in male db/db mouse model assessed as increase in blood triglyceride level at 10 mg/kg/day, po administered for 4 weeks by ELISA; assay type: organism-based; conditions: in vivo, 672 h
[4] = target: T2, Peroxisome proliferator-activated receptor gamma (Homo sapiens) (UniProt P37231); experiment: Covalent binding affinity to recombinant PPAR-gamma ligand binding domain (unknown origin) at Cys285 residue at 0.4 uM incubated for 30 mins by rhodamine-maleimide staining based SDS-PAGE analysis
T2 sequence (whole entry): T1 sequence (P37231 whole entry)

[5] = Toxicity in male db/db mouse model assessed as increase in liver weight at 10 mg/kg/day, po administered for 4 weeks; assay type: organism-based; conditions: in vivo, 672 h
[6] = Toxicity in male db/db mouse model assessed as increase in white adipocytes size at 10 mg/kg/day, po administered for 4 weeks by H and E staining based analysis; assay type: organism-based; conditions: in vivo, 672 h
[7] = Toxicity in male db/db mouse model assessed as hepatomegaly in liver at 10 mg/kg/day, po administered for 4 weeks; assay type: organism-based; conditions: in vivo, 672 h
3T3-L1 = experiment: Induction of adipocyte differentiation in mouse 3T3-L1 cells assessed as lipid accumulation at 1 uM measured after 48 hrs in presence of 1-oxido-1-(4-(tosyloxy)phenyl)-1lambda4-benzo[d][1,3,2]thiaselenazol-5-yl 4-methylbenzenesulfonate by Oil red O staining based inverted microscopic analysis; assay type: functional, cell-based
[8] = Toxicity in male db/db mouse model assessed as increase in brown adipocytes size at 10 mg/kg/day, po administered for 4 weeks by H and E staining based analysis; assay type: organism-based; conditions: in vivo, 672 h
[9] = Toxicity in male db/db mouse model assessed as lipid accumulation in liver at 10 mg/kg/day, po administered for 4 weeks; assay type: organism-based; conditions: in vivo, 672 h
[10] = Toxicity in male db/db mouse model assessed as increase in blood cholesterol level at 10 mg/kg/day, po administered for 4 weeks by ELISA; assay type: organism-based; conditions: in vivo, 672 h
[11] = Toxicity in male db/db mouse model assessed as increase in serum AST level at 10 mg/kg/day, po administered for 4 weeks by ELISA; assay type: organism-based; conditions: in vivo, 672 h
[12] = Toxicity in male db/db mouse model assessed as increase in lipid accumulation in liver at 10 mg/kg/day, po administered for 4 weeks by Oil red O staining based analysis; assay type: organism-based; conditions: in vivo, 672 h
[13] = Toxicity in male db/db mouse model assessed as increase in serum ALT level at 10 mg/kg/day, po administered for 4 weeks by ELISA; assay type: organism-based; conditions: in vivo, 672 h

| SMILES | Ki [1] [µM] | IC50 [2] [µM] | also measured |
| --- | --- | --- | --- |
| Cc1cccc(S2(=O)=N[Se]c3ccc(C)cc32)c1 (stereo not given) | 2.97 | 8.26 | – |
| O=S1(c2ccccc2)=N[Se]c2ccccc21 (stereo not given) | > 18 | > 50 | – |
| Cc1cc(C)cc(S2(=O)=N[Se]c3c(C)cc(C)cc32)c1 (stereo not given) | 13.7 | 38.2 | – |
| CS1(=O)=N[Se]c2cccc(Cl)c21 (stereo not given) | > 18 | > 50 | – |
| CN(CCOc1ccc(CC2SC(=O)NC2=O)cc1)c1ccccn1 (stereo not given) [ROSIGLITAZONE] | – | – | Activity [3]: Non-toxic; Activity [4]: inactive; Activity [5]: Toxic; Activity [6]: Toxic; Activity [7]: Toxic; Activity (3T3-L1): inactive; Activity [8]: Toxic; Activity [9]: Toxic; Activity [10]: Toxic; Activity [11]: Toxic; Activity [12]: Toxic; Activity [13]: Toxic |
| O=S(=O)(Oc1ccc(S2(=O)=N[Se]c3cc(OS(=O)(=O)C(F)(F)F)ccc32)cc1)C(F)(F)F (stereo not given) | 0.89 | 2.48 | – |
| O=S1(c2ccc(C(F)(F)F)cc2)=N[Se]c2cc(C(F)(F)F)ccc21 (stereo not given) | 0.62 | 1.73 | – |
| CS1(=O)=N[Se]c2cc(Cl)ccc21 (stereo not given) | > 18 | > 50 | – |
| O=S1(CCl)=N[Se]c2ccccc21 (stereo not given) | > 18 | > 50 | – |
| O=S1(c2cccc(Cl)c2)=N[Se]c2ccc(Cl)cc21 (stereo not given) | 0.23 | 0.64 | – |
| O=S1(c2ccc(Cl)cc2)=N[Se]c2cc(Cl)ccc21 (stereo not given) | 14.5 | 40.4 | – |
| O=S1(c2ccc(-c3ccccc3)cc2)=N[Se]c2cc(-c3ccccc3)ccc21 (stereo not given) | 0.6 | 1.68 | – |
| Cc1ccc2c(c1)[Se]N=S2(C)=O (stereo not given) | > 18 | > 50 | – |
| O=S1(C2CC2)=N[Se]c2ccccc21 (stereo not given) | > 18 | > 50 | – |
| CS1(=O)=N[Se]c2ccc(Cl)cc21 (stereo not given) | > 18 | > 50 | – |
| Cc1ccc(S2(=O)=N[Se]c3cc(C)ccc32)cc1 (stereo not given) | 4.52 | 12.6 | – |
| Cc1ccccc1S1(=O)=N[Se]c2cccc(C)c21 (stereo not given) | 14.1 | 39.3 | – |
| O=[N+]([O-])c1ccc(S2(=O)=N[Se]c3cc([N+](=O)[O-])ccc32)cc1 (stereo not given) | 0.24 | 0.67 | – |
| CC(C)(C)c1ccc(S2(=O)=N[Se]c3cc(C(C)(C)C)ccc32)cc1 (stereo not given) | 0.45 | 1.24 | – |
| COC(=O)c1ccc2c(c1)[Se]N=S2(C)=O (stereo not given) | > 18 | > 50 | – |
| COc1cccc(S2(=O)=N[Se]c3ccc(OC)cc32)c1 (stereo not given) | 1.18 | 3.28 | – |
| CCS1(=O)=N[Se]c2ccccc21 (stereo not given) | > 18 | > 50 | – |
| CS1(=O)=N[Se]c2ccccc21 (stereo not given) | > 18 | > 50 | – |
| O=S1(c2ccc(Br)cc2)=N[Se]c2cc(Br)ccc21 (stereo not given) | 0.53 | 1.48 | – |
| CCCc1ccc(S2(=O)=N[Se]c3cc(CCC)ccc32)cc1 (stereo not given) | 0.76 | 2.11 | – |
